Experimental data taken from patent US9226500B2, “Pesticidal compositions and processes related thereto” (Dow AgroSciences LLC, priority 2012, dated 2016).

System: Beet Armyworm (Spodoptera exigua)
Test: Bioassay on Beet Armyworm (BAW), 128-well diet tray assay
Type: in vivo
Conditions: Table 3, Assays Results Part 1
Protocol: Certain molecules disclosed in this document were tested against BAW, CEW and CL using procedures described in the following examples. In the reporting of the results, the “BAW & CEW & CL Rating Table” was used (See Table Section).
Bioassays on BAW (Spodoptera exigua)
Bioassays on BAW were conducted using a 128-well diet tray assay. One to five second instar BAW larvae were placed in each well (3 mL) of the diet tray that had been previously filled with 1 mL of artificial diet to which 50 μg/cm^2 of the test compound (dissolved in 50 μL of 90:10 acetone-water mixture) had been applied (to each of eight wells) and then allowed to dry. Trays were covered with a clear self-adhesive cover, and held at 25° C., 14:10 light-dark for five to seven days. Percent mortality was recorded for the larvae in each well; activity in the eight wells was then averaged. The results are indicated in the tables entitled “Table 3: Assay Results Part 1” and “Table 4: Assay Results Part 2” (See Table Section).

Row | SMILES | BAW Rating
1 | Cc1cc(/C=C/C(c2cc(Cl)cc(Cl)c2)C(F)(F)F)ccc1C(=O)NCc1nnc(C2CC2)o1 (stereo not shown) [AC89, (E)-N-((5-Cyclopropyl-1,3,4-oxadiazol-2-yl)methyl)-4-(3-(3,5-dichlorophenyl)-4,4,4-trifluorobut-1-en-1-yl)-2-methylbenzamide] | A (50-100)
2 | FC(F)(F)CNC(=S)CNC(=S)c1ccc(/C=C/C(c2cc(Cl)c(Cl)c(Cl)c2)C(F)(F)F)cc1Br (stereo not shown) [AC90, (E)-2-Bromo-N-(2-thioxo-2-((2,2,2-trifluoroethyl)amino)ethyl)-4-(4,4,4-trifluoro-3-(3,4,5-trichlorophenyl)but-1-en-1-yl)benzothioamide] | A (50-100)
3 | O=C(CNC(=S)c1ccc(/C=C/C(c2cc(Cl)c(Cl)c(Cl)c2)C(F)(F)F)cc1Br)NCC(F)(F)F (stereo not shown) [AC91, (E)-2-(2-Bromo-4-(4,4,4-trifluoro-3-(3,4,5-trichlorophenyl)but-1-en-1-yl)phenylthioamido)-N-(2,2,2-trifluoroethyl)acetamide] | A (50-100)
4 | Cc1cc(/C=C\C(c2cc(Cl)cc(Cl)c2)C(F)(F)F)ccc1C(=O)NCC(=O)NC1CC1 (stereo not shown) [AC93] | A (50-100)
5 | O=C(CNC(=O)c1ccc(/C=C\C(c2cc(Cl)c(Cl)c(Cl)c2)C(F)(F)F)cc1Br)NCC(F)(F)F (stereo not shown) [AC95, (Z)-2-Bromo-N-(2-oxo-2-((2,2,2-trifluoroethyl)amino)ethyl)-4-(4,4,4-trifluoro-3-(3,4,5-trichlorophenyl)but-1-en-1-yl)benzamide] | A (50-100)
6 | O=C(CNC(=O)c1ccc(/C=C/C(c2cc(Cl)c(F)c(Cl)c2)C(F)(F)F)cc1[N+](=O)[O-])NCC(F)(F)F (stereo not shown) [AC98] | A (50-100)
7 | O=C(CNC(=O)c1ccc(/C=C/C(c2ccc(F)c(Cl)c2)C(F)(F)F)cc1Br)NCC(F)(F)F (stereo not shown) [AC99] | A (50-100)
8 | CC(=O)N1CCC(NC(=O)c2ccc(/C=C/C(c3cc(Cl)c(Cl)c(Cl)c3)C(F)(F)F)cc2Br)CC1 (stereo not shown) [AC103, (E)-N-(1-Acetylpiperidin-4-yl)-2-bromo-4-(4,4,4-trifluoro-3-(3,4,5-trichlorophenyl)but-1-en-1-yl)benzamide] | A (50-100)
9 | O=C(NC1CCN(C(=O)CC(F)(F)F)CC1)c1ccc(/C=C/C(c2cc(Cl)c(Cl)c(Cl)c2)C(F)(F)F)cc1Br (stereo not shown) [AC104, (E)-2-Bromo-4-(4,4,4-trifluoro-3-(3,4,5-trichlorophenyl)but-1-en-1-yl)-N-(1-(3,3,3-trifluoropropanoyl)piperidin-4-yl)benzamide] | A (50-100)
10 | CN1CCC(NC(=O)c2ccc(/C=C/C(c3cc(Cl)c(Cl)c(Cl)c3)C(F)(F)F)cc2Br)CC1 (stereo not shown) [AC106, (E)-2-Bromo-N-(1-methylpiperidin-4-yl)-4-(4,4,4-trifluoro-3-(3,4,5-trichlorophenyl)but-1-en-1-yl)benzamide] | A (50-100)
11 | N#CCN1CCC(NC(=O)c2ccc(/C=C/C(c3cc(Cl)c(Cl)c(Cl)c3)C(F)(F)F)cc2Br)CC1 (stereo not shown) [AC107] | B (More than 0-Less than 50)
12 | O=C(NC1CCN(C2COC2)CC1)c1ccc(/C=C/C(c2cc(Cl)c(Cl)c(Cl)c2)C(F)(F)F)cc1Br (stereo not shown) [AC108] | B (More than 0-Less than 50)
13 | CONC(=O)CNC(=O)c1ccc(/C=C/C(c2cc(Cl)c(Cl)c(Cl)c2)C(F)(F)F)cc1Br (stereo not shown) [AC110] | A (50-100)
14 | C=CCNC(=O)CNC(=O)c1ccc(/C=C/C(c2cc(Cl)c(Cl)c(Cl)c2)C(F)(F)F)cc1Br (stereo not shown) [AC111] | A (50-100)
15 | O=C(NCCc1ccc(Cl)nc1)c1ccc(/C=C/C(c2cc(Cl)c(Cl)c(Cl)c2)C(F)(F)F)cc1Br (stereo not shown) [AC113] | B (More than 0-Less than 50)
16 | O=C(NC1CCNCC1)c1ccc(/C=C/C(c2cc(Cl)c(Cl)c(Cl)c2)C(F)(F)F)cc1Br (stereo not shown) [AC114, (E)-2-Bromo-N-(piperidin-4-yl)-4-(4,4,4-trifluoro-3-(3,4,5-trichlorophenyl)but-1-en-1-yl)benzamide] | A (50-100)
17 | Cc1cc(/C=C/C(c2cc(Cl)cc(Cl)c2)C(F)(F)F)ccc1C(=S)NCc1ccc(Cl)nc1 (stereo not shown) [AC115, (E)-N-((6-Chloropyridin-3-yl)methyl)-4-(3-(3,5-dichlorophenyl)-4,4,4-trifluorobut-1-en-1-yl)-2-methylbenzothioamide] | A (50-100)
18 | Cc1cc(/C=C/C(c2cc(Cl)cc(Cl)c2)C(F)(F)F)ccc1C(=O)N(C)Cc1ccc(Cl)nc1 (stereo not shown) [AC117] | A (50-100)
19 | Cc1cc(/C=C/C(c2cc(Cl)cc(Cl)c2)C(F)(F)F)ccc1C(=O)NCC1CCCO1 (stereo not shown) [AC118] | A (50-100)
20 | O=C(CC(F)(F)F)NC1CCCc2cc(/C=C/C(c3cc(Cl)c(Cl)c(Cl)c3)C(F)(F)F)ccc21 (stereo not shown) [BC5] | A (50-100)
21 | O=C(NC1CCc2cc(/C=C/C(c3cc(Cl)c(Cl)c(Cl)c3)C(F)(F)F)ccc21)C1CC1 (stereo not shown) [BC6] | A (50-100)
22 | O=C(NC1CCCc2cc(/C=C/C(c3cc(Cl)c(Cl)c(Cl)c3)C(F)(F)F)ccc21)C1CC1 (stereo not shown) [BC7] | A (50-100)
23 | O=C(CC(F)(F)F)NC1CCc2cc(/C=C/C(c3cc(Cl)c(F)c(Cl)c3)C(F)(F)F)ccc21 (stereo not shown) [BC8] | A (50-100)
24 | O=C(Cc1ccc(Cl)nc1)NC1CCc2cc(/C=C/C(c3cc(Cl)c(F)c(Cl)c3)C(F)(F)F)ccc21 (stereo not shown) [BC9] | A (50-100)
25 | Fc1c(Cl)cc(C(/C=C/c2ccc3c(c2)CCC3NCCC(F)(F)F)C(F)(F)F)cc1Cl (stereo not shown) [BC10, (E)-5-(3-(3,5-Dichloro-4-fluorophenyl)-4,4,4-trifluorobut-1-en-1-yl)-N-(3,3,3-trifluoropropyl)-2,3-dihydro-1H-inden-1-amine] | A (50-100)

Row | SMILES | BAW Rating
26 | O=C(CC(F)(F)F)NCC(=O)n1ccc2cc(/C=C/C(c3cc(Cl)c(F)c(Cl)c3)C(F)(F)F)ccc21 (stereo not shown) [BC13, (E)-N-(2-(5-(3-(3,5-Dichloro-4-fluorophenyl)-4,4,4-trifluorobut-1-en-1-yl)-1H-indol-1-yl)-2-oxoethyl)-3,3,3-trifluoropropanamide] | A (50-100)
27 | O=C(Cn1ncc2cc(/C=C/C(c3cc(Cl)c(F)c(Cl)c3)C(F)(F)F)ccc2c1=O)NCC(F)(F)F (stereo not shown) [BC14, (E)-2-(6-(3-(3,5-Dichloro-4-fluorophenyl)-4,4,4-trifluorobut-1-en-1-yl)-1-oxophthalazin-2(1H)-yl)-N-(2,2,2-trifluoroethyl)acetamide] | A (50-100)
28 | O=C(NCc1ccc(/C=C/C(c2cc(Cl)cc(Cl)c2)C(F)(F)F)cc1)C1CC1 (stereo not shown) [CC2] | A (50-100)
29 | O=C(CC(F)(F)F)NCc1ccc(/C=C/C(c2cc(Cl)cc(Cl)c2)C(F)(F)F)cc1 (stereo not shown) [CC3] | A (50-100)
30 | CCC(=O)NCc1ccc(/C=C/C(c2cc(Cl)cc(Cl)c2)C(F)(F)F)cc1 (stereo not shown) [CC4] | A (50-100)
31 | O=C(NCc1ccc(/C=C/C(c2cc(Cl)c(Cl)c(Cl)c2)C(F)(F)F)cc1)C1CC1 (stereo not shown) [CC5] | A (50-100)
32 | O=C(CC(F)(F)F)NCc1ccc(/C=C/C(c2cc(Cl)c(Cl)c(Cl)c2)C(F)(F)F)cc1 (stereo not shown) [CC6] | A (50-100)
33 | CC(=O)NCc1ccc(/C=C/C(c2cc(Cl)cc(Cl)c2)C(F)(F)F)cc1Cl (stereo not shown) [CC7, (E)-N-(2-Chloro-4-(3-(3,5-dichlorophenyl)-4,4,4-trifluorobut-1-en-1-yl)benzyl)acetamide] | A (50-100)
34 | O=C(NCc1ccc(/C=C/C(c2cc(Cl)cc(Cl)c2)C(F)(F)F)cc1Cl)C1CC1 (stereo not shown) [CC8] | A (50-100)
35 | O=C(CC(F)(F)F)NCc1ccc(/C=C/C(c2cc(Cl)cc(Cl)c2)C(F)(F)F)cc1Cl (stereo not shown) [CC9] | A (50-100)
36 | O=C(NCc1ccc(/C=C/C(c2cc(Cl)c(Cl)c(Cl)c2)C(F)(F)F)cc1Cl)C1CC1 (stereo not shown) [CC11] | A (50-100)
37 | O=C(Cc1ccc(Cl)nc1)NCc1ccc(/C=C/C(c2cc(Cl)c(Cl)c(Cl)c2)C(F)(F)F)cc1Cl (stereo not shown) [CC14] | A (50-100)
38 | O=C(NCc1ccc(/C=C/C(c2cc(Cl)c(F)c(Cl)c2)C(F)(F)F)cc1Cl)C1CC1 (stereo not shown) [CC15] | A (50-100)
39 | O=C(NCc1ccc(/C=C/C(c2ccc(Cl)c(Cl)c2)C(F)(F)F)cc1Cl)C1CC1 (stereo not shown) [CC17] | A (50-100)
40 | O=C(CC(F)(F)F)NCc1ccc(/C=C/C(c2ccc(Cl)c(Cl)c2)C(F)(F)F)cc1Cl (stereo not shown) [CC18] | A (50-100)
41 | CSCCC(=O)NCc1ccc(/C=C/C(c2cc(Cl)c(Cl)c(Cl)c2)C(F)(F)F)cc1Cl (stereo not shown) [CC19] | A (50-100)
42 | FC(F)(F)C(/C=C/c1ccc(CNC(=S)C2CC2)c(Cl)c1)c1cc(Cl)c(Cl)c(Cl)c1 (stereo not shown) [CC20] | A (50-100)
43 | O=C(NCc1ccc(/C=C/C(c2cc(Cl)cc(Cl)c2)C(F)(F)F)cc1C(F)(F)F)C1CC1 (stereo not shown) [CC21] | A (50-100)
44 | O=C(NCc1ccc(/C=C/C(c2cc(Cl)c(Cl)c(Cl)c2)C(F)(F)F)cc1C(F)(F)F)C1CC1 (stereo not shown) [CC22] | A (50-100)
45 | O=C(CC(F)(F)F)NCc1ccc(/C=C/C(c2cc(Cl)c(Cl)c(Cl)c2)C(F)(F)F)cc1C(F)(F)F (stereo not shown) [CC24] | A (50-100)
46 | O=C(CC(F)(F)F)NCc1ccc(/C=C/C(c2cc(Cl)c(Cl)c(Cl)c2)C(F)(F)F)cc1Br (stereo not shown) [CC25] | A (50-100)
47 | O=C(NCc1ccc(/C=C/C(c2cc(Cl)c(Cl)c(Cl)c2)C(F)(F)F)cc1Br)C1CC1 (stereo not shown) [CC26] | A (50-100)
48 | O=C(CC(F)(F)F)NCc1ccc(/C=C/C(c2cc(Cl)c(Cl)c(Cl)c2)C(F)(F)F)cc1F (stereo not shown) [CC27] | A (50-100)
49 | O=C(NCc1ccc(/C=C/C(c2cc(Cl)c(Cl)c(Cl)c2)C(F)(F)F)cc1F)C1CC1 (stereo not shown) [CC28] | A (50-100)
